This assay concerns the target T1, HPK1 kinase (aa1-346, Life Technologies) (Homo sapiens, UniProt Q92918).
T1 construct: HPK1 kinase (aa1-346, Life Technologies); purchased Life Technologies
T1 sequence (Q92918 1-346): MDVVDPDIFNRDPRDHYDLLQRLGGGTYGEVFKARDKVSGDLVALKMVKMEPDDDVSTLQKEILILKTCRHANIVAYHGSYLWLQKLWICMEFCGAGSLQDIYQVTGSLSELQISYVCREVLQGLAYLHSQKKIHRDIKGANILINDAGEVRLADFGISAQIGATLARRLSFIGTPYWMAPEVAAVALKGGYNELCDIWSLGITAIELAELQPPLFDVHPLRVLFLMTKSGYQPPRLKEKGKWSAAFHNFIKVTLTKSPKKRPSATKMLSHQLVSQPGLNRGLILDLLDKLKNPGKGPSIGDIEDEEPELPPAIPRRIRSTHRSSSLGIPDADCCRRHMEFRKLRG
Description: HPK Kinase Activity Assay at 1 mM ATP (TR-FRET). The format is biochemical. To be noted: HPK1 kinase 40 nM, 0.5 μM STK1 substrate, read-out: Enzymatic activity IC50. As to the method: HPK Kinase Activity Assay at 1 mM ATP
Compounds disclosed herein were tested for inhibition of HPK1 kinase (aa1-346, Life Technologies) activity in assays based on the time-resolved fluorescence-resonance energy transfer (TR-FRET) methodology. The assays were carried out in 384-well low volume black plates in a reaction mixture containing HPK1 kinase (40 nM), 1 mM ATP, 0.5 μM STK1 substrate and 0-10 μM compound in buffer containing 50 mM HEPES, 0.01% BSA, 0.1 mM Orthovanadate, 10 mM MgCl2, 1 mM DTT, pH=7.0, 0.005% Tween-20. The kinase was incubated with the compounds disclosed herein or DMSO for 60 minutes at room temperature and the reaction was initiated by the addition of ATP and STK1 substrate. After reaction at room temperature for 120 minutes, an equal volume of stop/detection solution was added according to the manufacture's instruction (CisBio). The stop/detection solution contained STK Antibody-Cryptate and XL665-conjugated streptavidin in Detection Buffer. The TR-FRET signals (ratio of fluorescence emission at 665 nm over emission at 620 nm with excitation at 337 nm wavelength) were recorded on a PHERAstar FS plate reader (BMG Labtech). Phosphorylation of STK1 substrate led to the binding of STK Antibody-Cryptate to the biotinylated STK1 substrate, which places fluorescent donor (Eu^3+ crypate) in close proximity to the accepter (Streptavidin-XL665), thus resulting in a high degree of fluorescence resonance energy transfer. The inhibition of HPK1 in presence of increasing concentrations of compounds was calculated based on the ratio of fluorescence at 665 nm to that at 620 nm. The IC50 for each compound was derived from fitting the data to the four-parameter logistic equation by Graphpad Prism software.

The values that follow come from patent publication US12673933B2, “Aminopyrazine compounds as HPK1 inhibitor and the use thereof” (BEIGENE, LTD., priority 2019, dated 2026).

Molecules are shown by their SMILES. pIC50: −log10 of the molar value.

Consider `CN1CCc2c(cc(-c3cnc(N)c(-n4cc(C(=O)N(C)C)cn4)n3)cc2NC2CC2)C1` [Example 290, 1-(3-amino-6-(5-(cyclopropylamino)-2-methyl-1,2,3,4-tetrahydroisoquinolin-7-yl)pyrazin-2-yl)-N,N-dimethyl-1H-pyrazole-4-carboxamide], for which the pIC50 is 7.80. The value for `Cc1cc(-c2cnc(N)c(OCc3ccncc3Cl)n2)cc2c1CCN(C)C2` [Example 21, 3-((3-chloropyridin-4-yl)methoxy)-5-(2,5-dimethyl-1,2,3,4-tetrahydroisoquinolin-7-yl)pyrazin-2-amine] was 7.46; that for `Cc1cc(-c2cnc(N)c(Oc3cnn(CC(C)(C)C#N)c3)n2)cc2c1CN(C)CC2` [Example 318, 3-(4-(3-amino-6-(2,8-dimethyl-1,2,3,4-tetrahydroisoquinolin-6-yl)pyrazin-2-yloxy)-1H-pyrazol-1-yl)-2,2-dimethylpropanenitrile] was 7.22; that for `Cc1cc(-c2cnc(N)c(OCc3cc(Cl)ncc3OC(C)C)n2)cc2c1CCN(C)C2` [Example 12, 3-((2-chloro-5-isopropoxypyridin-4-yl)methoxy)-5-(2,5-dimethyl-1,2,3,4-tetrahydroisoquinolin-7-yl)pyrazin-2-amine] was 7.57. On to `Cc1cc(-c2cnc(N)c(Oc3cnn([C@H]4CC[C@@](C)(O)CC4)c3)n2)cc2c1CCN(C)C2` [Example 311, (1s,4s)-4-(4-(3-amino-6-(2,5-dimethyl-1,2,3,4-tetrahydroisoquinolin-7-yl)pyrazin-2-yloxy)-1H-pyrazol-1-yl)-1-methylcyclohexanol], for which the pIC50 was 8.11. Regarding `CNc1cc(-c2cnc(N)c(-n3cc(C(=O)N(C)C)cn3)n2)cc2c1CCN(C)C2` [Example 289, 1-(3-amino-6-(2-methyl-5-(methylamino)-1,2,3,4-tetrahydroisoquinolin-7-yl)pyrazin-2-yl)-N,N-dimethyl-1H-pyrazole-4-carboxamide], the pIC50 was 8.01. With `Cc1cc(-c2cnc(N)c(Oc3cnn(C4CCN(C)CC4)c3)n2)cc2c1CCN(C)C2` [Example 307, 5-(2,5-dimethyl-1,2,3,4-tetrahydroisoquinolin-7-yl)-3-(1-(1-methylpiperidin-4-yl)-1H-pyrazol-4-yloxy)pyrazin-2-amine], the pIC50 was 8.23. For `COCCn1cc(Oc2nc(-c3cc(C)c4c(c3)CN(C)CC4)cnc2N)cn1` [Example 276, 5-(2,5-dimethyl-1,2,3,4-tetrahydroisoquinolin-7-yl)-3-((1-(2-methoxyethyl)-1H-pyrazol-4-yl)oxy)pyrazin-2-amine], the pIC50 is 7.62. The value for `[2H]C([2H])(Oc1nc(-c2cc(C)c3c(c2)CN(C)CC3)cnc1N)c1ccnc(N)c1` [Example 266, 3-((2-aminopyridin-4-yl)methoxy-d2)-5-(2,5-dimethyl-1,2,3,4-tetrahydroisoquinolin-7-yl)pyrazin-2-amine] was 8.29; that for `Cc1cc(-c2cnc(N)c(-n3cc(C(=O)N4CCN(C)CC4)cn3)n2)cc2c1CCN(C)C2` [Example 284, (1-(3-amino-6-(2,5-dimethyl-1,2,3,4-tetrahydroisoquinolin-7-yl)pyrazin-2-yl)-1H-pyrazol-4-yl)(4-methylpiperazin-1-yl)methanone] was 7.42; that for `CCOCCn1cc(Oc2nc(-c3cc(C)c4c(c3)CN(C)CC4)cnc2N)cn1` [Example 278, 5-(2,5-dimethyl-1,2,3,4-tetrahydroisoquinolin-7-yl)-3-((1-(2-ethoxyethyl)-1H-pyrazol-4-yl)oxy)pyrazin-2-amine] was 7.82. As for `Cc1cc(-c2cnc(N)c(OCc3ccnc(N)c3)n2)cc2c1CN(C)CC2` [Example 31, 3-((2-aminopyridin-4-yl)methoxy)-5-(2,8-dimethyl-1,2,3,4-tetrahydroisoquinolin-6-yl)pyrazin-2-amine], the pIC50 was 7.60. Regarding `Cc1cc(-c2cnc(N)c(-n3cc4cc(CO)ccc4n3)n2)cc2c1CCN(C)C2` [Example 5, (2-(3-amino-6-(2,5-dimethyl-1,2,3,4-tetrahydroisoquinolin-7-yl)pyrazin-2-yl)-2H-indazol-5-yl)methanol], the pIC50 was 6.76. The value for `Cc1cc(-c2cnc(N)c(OCc3ccncn3)n2)cc2c1CCN(C)C2` [Example 3, 5-(2,5-dimethyl-1,2,3,4-tetrahydroisoquinolin-7-yl)-3-(pyrimidin-4-ylmethoxy)pyrazin-2-amine] was 6.44; that for `Cc1cc(-c2cnc(N)c(OCc3cc[nH]n3)n2)cc2c1CCN(C)C2` [Example 43, 3-((1H-pyrazol-3-yl)methoxy)-5-(2,5-dimethyl-1,2,3,4-tetrahydroisoquinolin-7-yl)pyrazin-2-amine] was 7.25; that for `Cc1cc(-c2cnc(N)c(Oc3cnn(C(C)C)c3)n2)cc2c1CN(C)CC2` [Example 242, 5-(2,8-dimethyl-1,2,3,4-tetrahydroisoquinolin-6-yl)-3-(1-isopropyl-1H-pyrazol-4-yloxy)pyrazin-2-amine] was 7.27. On to `Cc1cc(-c2cnc(N)c(Oc3cnn([C@H]4CC[C@@](C)(O)CC4)c3)n2)cc2c1CN(C)CC2` [Example 312, (1s,4s)-4-(4-(3-amino-6-(2,8-dimethyl-1,2,3,4-tetrahydroisoquinolin-6-yl)pyrazin-2-yloxy)-1H-pyrazol-1-yl)-1-methylcyclohexanol], for which the pIC50 was 7.20. As to `Cc1cc(-c2cnc(N)c(-n3cc(C(=O)N(C)C)cn3)n2)cc2c1CCN(C)C2` [Example 46, 1-(3-amino-6-(2,5-dimethyl-1,2,3,4-tetrahydroisoquinolin-7-yl)pyrazin-2-yl)-N,N-dimethyl-1H-pyrazole-4-carboxamide], the pIC50 is 7.68. As to `Cc1cc(-c2cnc(N)c(Oc3cnn(C(C)C)c3)n2)cc2c1CCN(C)C2` [Example 272, 5-(2,5-dimethyl-1,2,3,4-tetrahydroisoquinolin-7-yl)-3-(1-isopropyl-1H-pyrazol-4-yloxy)pyrazin-2-amine], the pIC50 was 8.08.

With `Cc1cc(-c2cnc(N)c(Oc3cnn(CCC#N)c3)n2)cc2c1CCN(C)C2` [Example 277, 3-(4-((3-amino-6-(2,5-dimethyl-1,2,3,4-tetrahydroisoquinolin-7-yl)pyrazin-2-yl)oxy)-1H-pyrazol-1-yl)propanenitrile], the pIC50 is 8.19. As for `Cc1cc(-c2cnc(N)c(OCc3ccnc4[nH]cnc34)n2)cc2c1CCN(C)C2` [Example 44, 3-((3H-imidazo[4,5-b]pyridin-7-yl)methoxy)-5-(2,5-dimethyl-1,2,3,4-tetrahydroisoquinolin-7-yl)pyrazin-2-amine and 3-((1H-imidazo[4,5-b]pyridin-7-yl)methoxy)-5-(2,5-dimethyl-1,2,3,4-tetrahydroisoquinolin-7-yl)pyrazin-2-amine], the negative logarithm of the IC50 (pIC50) is 7.72. Regarding `Cc1cc(-c2cnc(N)c(OCc3ccnc4ccccc34)n2)cc2c1CCN(C)C2` [Example 22, 5-(2,5-dimethyl-1,2,3,4-tetrahydroisoquinolin-7-yl)-3-(quinolin-4-ylmethoxy)pyrazin-2-amine], the pIC50 is 7.42. Turning to `Cc1cc(-c2cnc(N)c(Oc3cnn(C(C)c4cccnc4)c3)n2)cc2c1CCN(C)C2` (centres unmarked) [Example 288, 5-(2,5-dimethyl-1,2,3,4-tetrahydroisoquinolin-7-yl)-3-(1-(1-(pyridin-3-yl)ethyl)-1H-pyrazol-4-yloxy)pyrazin-2-amine], the pIC50 was 7.77. Turning to `Cc1cnccc1COc1nc(-c2cc(C)c3c(c2)CN(C)CC3)cnc1N` [Example 9, 5-(2,5-dimethyl-1,2,3,4-tetrahydroisoquinolin-7-yl)-3-((3-methylpyridin-4-yl)methoxy)pyrazin-2-amine], the negative-log IC50 (pIC50) was 7.77.

`Cc1cc(-c2cnc(N)c(Oc3cnn(C(C)(C)C#N)c3)n2)cc2c1CCN(C)C2` [Example 317, 2-(4-(3-amino-6-(2,5-dimethyl-1,2,3,4-tetrahydroisoquinolin-7-yl)pyrazin-2-yloxy)-1H-pyrazol-1-yl)-2-methylpropanenitrile]: the pIC50 is 7.70.

`COc1cnccc1COc1nc(-c2cc3c(c(OC)c2)CCN(C)C3)cnc1N` [Example 180, 5-(5-methoxy-2-methyl-1,2,3,4-tetrahydroisoquinolin-7-yl)-3-((3-methoxypyridin-4-yl)methoxy)pyrazin-2-amine]: the pIC50 is 7.68.
